Our source for the IC50 values is patent US20230117034A1, “PYRAZOLOTRIAZINES” (Bayer Aktiengesellschaft, priority 2019, published 2023).

For one test, the target named is CDK12/CycK (Homo sapiens, UniProt Q9NYV4). Briefly: CDK12/CycK high ATP kinase assay (TR-FRET, 2 mM ATP). Format: biochemical. To be noted: 2 mM ATP (high ATP); median; read-out: CDK12/CyclinK, 2 mM ATP (high ATP), IC50-[mol/l] (median). The method, boiled down:
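His-tagged human CDK12/CycK (~0.75 nM) pre-incubated 15 min with compound, then 60 min at 22 °C with 2 mM ATP and 1 µM biotinylated peptide (HEPES pH 7.5, 20 mM MgCl2). EDTA stop; phospho-Ser62 antibody/Eu anti-rabbit and streptavidin-XL665 TR-FRET, 665/620 nm ratio normalised to give IC50.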

The subject of test [1] is CAL-120, human breast adenocarcinoma cells. Briefly: Proliferation assay CAL-120 (crystal violet, 4 days). Format: cell-based. The following applies: Homo sapiens, CAL-120, 96 h, CAL-120 cells, median, read-out: Prolif-CAL-120, IC50-[mol/l] (median). The method in brief:
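Following a 24 h attachment in 10% fetal calf serum medium, cells receive test substance over 0.01-10 µmol/L for 4 days. Dye retained by fixed cells is eluted and read at 595 nm; cell number change is referenced to day-0 and untreated wells.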

Where only a bound is given, the exact number is not on record here.

Chain of CDK12/CycK (Q9NYV4 with tags, fused parts or gaps): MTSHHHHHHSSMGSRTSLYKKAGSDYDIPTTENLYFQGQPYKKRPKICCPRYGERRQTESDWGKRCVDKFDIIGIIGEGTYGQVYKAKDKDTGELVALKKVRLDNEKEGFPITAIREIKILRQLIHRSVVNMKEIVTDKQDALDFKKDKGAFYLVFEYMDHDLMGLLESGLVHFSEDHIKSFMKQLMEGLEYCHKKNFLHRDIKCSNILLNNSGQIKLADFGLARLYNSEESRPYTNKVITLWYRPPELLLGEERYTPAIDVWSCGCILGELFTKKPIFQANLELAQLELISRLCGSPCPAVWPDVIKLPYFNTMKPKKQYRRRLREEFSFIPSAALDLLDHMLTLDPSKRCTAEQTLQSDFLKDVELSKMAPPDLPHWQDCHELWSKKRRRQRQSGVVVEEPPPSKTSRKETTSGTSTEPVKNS
Chain of CDK12/CycK (O75909 1-300 partner limits assumed): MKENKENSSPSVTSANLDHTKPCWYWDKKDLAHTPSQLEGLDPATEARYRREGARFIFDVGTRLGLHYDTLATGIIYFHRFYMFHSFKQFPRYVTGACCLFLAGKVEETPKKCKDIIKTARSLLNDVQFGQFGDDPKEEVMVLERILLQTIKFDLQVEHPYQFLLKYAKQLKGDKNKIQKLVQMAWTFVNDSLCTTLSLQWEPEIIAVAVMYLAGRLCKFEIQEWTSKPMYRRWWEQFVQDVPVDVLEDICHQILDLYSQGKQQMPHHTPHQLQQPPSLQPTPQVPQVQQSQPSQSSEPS

For `Brc1cnn2c(NCc3nc4ccccc4[nH]3)nc(OC3CCOCC3)nc12` [Example 405, N-[(1H-benzimidazol-2-yl)methyl]-8-bromo-2-[(oxan-4-yl)oxy]pyrazolo[1,5-a][1,3,5]triazin-4-amine], the IC50 at CDK12/CycK is over 20000 nM; in test [1], 135 nM.

Take `CN1CCN(c2nc(NCc3nc4ccccc4[nH]3)n3ncc(C4CC4(F)F)c3n2)CC1` (stereo not drawn) [Example 428, N-(1H-benzimidazol-2-ylmethyl)-8-(2,2-difluorocyclopropyl)-2-(4-methylpiperazin-1-yl)pyrazolo[1,5-a][1,3,5]triazin-4-amine]: the IC50 at CDK12/CycK is over 20000 nM; in test [1], 47.4 nM.

Take `Brc1cnn2c(NCc3nc4ccccc4[nH]3)nc(OC3CCCCC3)nc12` [Example 406, N-[(1H-benzimidazol-2-yl)methyl]-8-bromo-2-(cyclohexyloxy)pyrazolo[1,5-a][1,3,5]triazin-4-amine]: the values for the IC50 (at CDK12/CycK; in test [1]) were over 20000 nM and 62.2 nM, respectively.

As for `Fc1ccc2[nH]c(CNc3nc(N4CCOCC4)nc4c(C(F)(F)F)cnn34)nc2c1F` [Example 426, N-[(4,5-difluoro-1H-benzimidazol-2-yl)methyl]-2-(morpholin-4-yl)-8-(trifluoromethyl)pyrazolo [1,5-a][1,3,5]triazin-4-amine], the IC50 was 23.9 nM at CDK12/CycK and 3.57 nM in test [1].

`Brc1cnn2c(NCc3nc4ccccc4[nH]3)nc(N3CCCCC3)nc12` [Example 46, N-[(1H-benzimidazol-2-yl)methyl]-8-bromo-2-(piperidin-1-yl)pyrazolo[1,5-a][1,3,5]triazin-4-amine]: the IC50 stood at 3330 nM at CDK12/CycK and 238 nM in test [1].

As to `O=C(O)C(F)(F)F.c1ccc2[nH]c(CNc3nc(N4CCOCC4)nc4c(-c5cncs5)cnn34)nc2c1` [Example 441, trifluoroacetic acid-N-[(1H-benzimidazol-2-yl)methyl]-2-(morpholin-4-yl)-8-(1,3-thiazol-5-yl)pyrazolo[1,5-a][1,3,5]triazin-4-amine (1/1)], the IC50 on CDK12/CycK turned out to be 4180 nM; in test [1] it was 7.69 nM.

For `Cc1cnn2c(NCc3nc4c(F)c(F)ccc4[nH]3)nc(N3CC4CCC(C3)N4)nc12` [Example 400, 2-(3,8-diazabicyclo[3.2.1]octan-3-yl)-N-[(4,5-difluoro-1H-benzimidazol-2-yl)methyl]-8-methylpyrazolo[1,5-a][1,3,5]triazin-4-amine], the IC50 was over 16700 nM at CDK12/CycK and 5.23 nM in test [1].

In the case of `FC(F)(F)c1cccc(-c2nnc(CNc3nc(N4CCOCC4)nc4c(Br)cnn34)[nH]2)c1` [Example 52, 8-bromo-2-(morpholin-4-yl)-N-({5-[3-(trifluoromethyl)phenyl]-4H-1,2,4-triazol-3-yl}methyl)pyrazolo[1,5-a][1,3,5]triazin-4-amine], the IC50 on CDK12/CycK came out at 1640 nM; in test [1], 23.3 nM.

`N#Cc1cccc(-c2c[nH]c(CNc3nc(N4CCOCC4)nc4c(Br)cnn34)n2)c1` [Example 42, 3-[2-({[8-bromo-2-(morpholin-4-yl)pyrazolo[1,5-a][1,3,5]triazin-4-yl]amino}methyl)-1H-imidazol-4-yl]benzonitrile]: the IC50 on CDK12/CycK was found to be 406 nM; in test [1], 1.76 nM.

As to `CC(C)(O)COc1nc(NCc2nc3ccccc3[nH]2)n2ncc(Br)c2n1` [Example 398, 1-[(4-{[(1H-benzimidazol-2-yl)methyl]amino}-8-bromopyrazolo[1,5-a][1,3,5]triazin-2-yl)oxy]-2-methylpropan-2-ol], the IC50 amounted to 14600 nM on CDK12/CycK and 67.4 nM in test [1].

As for `Cc1cccc(-c2nnc(CNc3nc(N4CCOCC4)nc4c(Br)cnn34)[nH]2)c1` [Example 40, 8-bromo-N-{[5-(3-methylphenyl)-4H-1,2,4-triazol-3-yl]methyl}-2-(morpholin-4-yl)pyrazolo[1,5-a][1,3,5]triazin-4-amine], the IC50 on CDK12/CycK came to 2440 nM; in test [1] it was 23.1 nM.

`CN1CCN(c2nc(NCc3nc4c(F)c(F)ccc4[nH]3)n3ncc(-c4nccs4)c3n2)CC1` [Example 415, N-[(4,5-difluoro-1H-benzimidazol-2-yl)methyl]-2-(4-methylpiperazin-1-yl)-8-(1,3-thiazol-2-yl)pyrazolo[1,5-a][1,3,5]triazin-4-amine]: the IC50 was over 20000 nM on CDK12/CycK and 268 nM in test [1].

On to `Clc1cc2nc(CNc3nc(N4CCOCC4)nc4c(-c5cscn5)cnn34)[nH]c2cc1Cl` [Example 424, N-[(5,6-dichloro-1H-benzimidazol-2-yl)methyl]-2-(morpholin-4-yl)-8-(1,3-thiazol-4-yl)pyrazolo [1,5-a][1,3,5]triazin-4-amine], for which the IC50 on CDK12/CycK was over 20000 nM; in test [1], 41.1 nM.

`Clc1cccc(-c2nnc(CNc3nc(N4CCOCC4)nc4c(Br)cnn34)[nH]2)c1` [Example 51, 8-bromo-N-{[5-(3-chlorophenyl)-4H-1,2,4-triazol-3-yl]methyl}-2-(morpholin-4-yl)pyrazolo[1,5-a][1,3,5]triazin-4-amine]: the IC50 on CDK12/CycK amounted to 1730 nM; in test [1], 9.43 nM.

As for `C[C@H]1COCCN1c1nc(NCc2nc3ccccc3[nH]2)n2ncc(Br)c2n1` [Example 57, N-[(1H-benzimidazol-2-yl)methyl]-8-bromo-2-[(3S)-3-methylmorpholin-4-yl]pyrazolo[1,5-a][1,3,5]triazin-4-amine], the IC50 worked out at 1040 nM on CDK12/CycK and 3.14 nM in test [1].

Take `CC1(C)CN(c2nc(NCc3nc4ccccc4[nH]3)n3ncc(Br)c3n2)CCO1` [Example 58, N-[(1H-benzimidazol-2-yl)methyl]-8-bromo-2-(2,2-dimethylmorpholin-4-yl)pyrazolo[1,5-a][1,3,5]triazin-4-amine]: the values for the IC50 (on CDK12/CycK; in test [1]) were 6440 nM and 56.3 nM, respectively.

Take `CCc1cnn2c(NCc3nc4ccccc4[nH]3)nc(N3CCN(C)CC3)nc12` [Example 434, N-[(1H-benzimidazol-2-yl)methyl]-8-ethyl-2-(4-methylpiperazin-1-yl)pyrazolo[1,5-a][1,3,5] triazin-4-amine]: the IC50 was over 17600 nM at CDK12/CycK and 10.2 nM in test [1].

As to `Brc1cnn2c(NCc3nc4ccccc4[nH]3)nc(N3CCCC3)nc12` [Example 47, N-[(1H-benzimidazol-2-yl)methyl]-8-bromo-2-(pyrrolidin-1-yl)pyrazolo[1,5-a][1,3,5]triazin-4-amine], the IC50 at CDK12/CycK was 7190 nM; in test [1], 23.9 nM.

Regarding `Cc1cnn2c(NCc3nc4ccccc4[nH]3)nc(N(C)CC(C)(C)O)nc12` [Example 397, 1-[(4-{[(1H-benzimidazol-2-yl)methyl]amino}-8-methylpyrazolo[1,5-a][1,3,5]triazin-2-yl)(methyl)amino]-2-methylpropan-2-ol], the IC50 on CDK12/CycK is over 17500 nM; in test [1], 171 nM.

As to `C[C@@H]1COCCN1c1nc(NCc2nc3ccccc3[nH]2)n2ncc(Br)c2n1` [Example 56, N-[(1H-benzimidazol-2-yl)methyl]-8-bromo-2-[(3R)-3-methylmorpholin-4-yl]pyrazolo[1,5-a][1,3,5]triazin-4-amine], the IC50 at CDK12/CycK was found to be 5310 nM; in test [1], 17.3 nM.

`FC(F)n1cc(-c2cnn3c(NCc4nc5ccccc5[nH]4)nc(N4CCOCC4)nc23)cn1` [Example 421, N-[(1H-benzimidazol-2-yl)methyl]-8-[1-(difluoromethyl)-1H-pyrazol-4-yl]-2-(morpholin-4-yl)pyrazolo[1,5-a][1,3,5]triazin-4-amine]: the IC50 on CDK12/CycK is 8580 nM; in test [1], 38.3 nM.
